# Patent publication US20250101338A1, “BIOMASS DERIVED SURFACE-ACTIVE COMPOSITIONS AND PRODUCTS” (Cambridge Glycoscience Ltd, priority 2021, published 2025)
# Test: Dynamic foam tests (Example 69)
# Type: physicochemical
# Settings: 5 mL of 0.5 wt % aqueous solution, 40 cm^3 air bubbled at 17 cm^3/min
# Procedure: The intensity and approximate decay-rate for the foaming behavior of the surface-active compositions in dilute aqueous solution was determined by dosing 5 mL of 0.5 wt % aqueous solution of surface-active composition to a vertically-aligned 50 m plastic serological pipette (“Stripette”). Air (40 cm^3) was bubbled through the surface-active composition solution at a rate of 17 cm^3/min via a syringe pump and the foam height upon complete addition of air recorded. The foam height was also recorded again 5 min after complete addition of air, 10 min after complete addition of air, 15 m after complete addition of air, 30 min after complete addition of air, 1 hour after complete addition of air and finally 2 hours after complete addition of air.
structure (smiles),measurement,setting,value
"CCCCCCCCCCN(C(C)=O)C1OC[C@@H](O)[C@H](O)[C@H]1O (stereo partly drawn) [Example 11 composition, N-decyl N-acetyl xylosylamine]",Volume of foam after given time,0 min,36.0 cm^3
same,Volume of foam after given time,5 min,2.0 cm^3
same,Volume of foam after given time,15 min,2.0 cm^3
same,Volume of foam after given time,30 min,2.0 cm^3
same,Volume of foam after given time,1 h,2.0 cm^3
same,Volume of foam after given time,2 h,2.0 cm^3
